Like-named read-outs stand apart in the source and are kept apart here.
Assays:
Assay type in all cases: in vivo
[1] = system: Eggs of Tetranychus Cinnabarinus; test: Activity assay of eggs of Tetranychus cinnabarinus (spray method, ovicidal); settings: Tetranychus cinnabarinus; for pest or weed control at 2 µg/mL: concentration 2 mg/L
In short: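 Female mites laid eggs on broad bean leaves for 24 h, adults removed, eggs sprayed with compound in DMF (≤10%)/1‰ Tween 80. Held at 26±2° C, 70–80% humidity, 16 h light; unhatched eggs counted dead once blank control hatched. Three replicates.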

[2] = system: Tetranychus cinnabarinus Nymphs; test: Activity assay of Tetranychus cinnabarinus nymphs (spray on broad bean leaves)
In short: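 Compound in DMF (≤10%) diluted in 1‰ Tween 80 water was sprayed onto broad bean leaves carrying nymphs hatched from eggs laid by female adults over 24 h. Kept at 26±2° C., 70%–80% humidity, 16 h light; mortality (no response to touch) assessed after 48 h, three replicates with blank control.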

[3] = system: adult Tetranychus cinnabarinus; test: Activity assay of adult Tetranychus cinnabarinus (whole-plant spray on bean seedlings); settings: 48 h; for pest or weed control at 1.25 µg/mL: concentration 1.25 mg/L
In short: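 Bean seedlings at two-true-leaf stage, infested with adult mites and base count taken, sprayed whole-plant with compound in DMF (≤10%) diluted in 1‰ Tween 80. Three replicates per treatment kept in standard observation room. Surviving mites counted at 48 h to give death rate.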

[4] = concentration 5 mg/L, spray, non-incubated eggs counted as dead, read-out: ovicidal activity
[5] = 48 h, concentration 2.5 mg/L, read-out: nymph-killing activity
[6] = concentration 2.5 mg/L, read-out: adult mite-killing activity
[7] = spray, read-out: ovicidal activity
[8] = eggs, parallel determination, read-out: Death rate (%)
[9] = 48 h, concentration 2 mg/L, read-out: nymph-killing activity
[10] = 48 h, nymphs, concentration 0.5 mg/L, parallel determination, read-out: Death rate (%)
[11] = adult mites, parallel determination, read-out: Death rate (%)
[12] = read-out: adult mite-killing activity

| SMILES | pest or weed control at 5 µg/mL [1, 4] [%] | pest or weed control at 2.5 µg/mL [2, 5] [%] | pest or weed control at 2.5 µg/mL [3, 6] [%] | further results |
| --- | --- | --- | --- | --- |
| CCCC(=O)OCO/C(=C(/C#N)c1ccc(C(C)(C)C)cc1)c1cc(C)nn1CC [Compound 228] | ≥ 90 | ≥ 95 | ≥ 90 |  |
| CCn1nc(C)cc1/C(OCOC(=O)C(C)C)=C(\C#N)c1ccc(C(C)(C)C)cc1 [Compound 229] | ≥ 90 | ≥ 95 | ≥ 90 |  |
| CCn1nc(C)cc1/C(OCOC(=O)C(C)(C)C)=C(\C#N)c1ccc(C(C)(C)C)cc1 [Compound 230] | ≥ 90 | ≥ 95 | ≥ 90 | pest or weed control at 2 µg/mL [1, 7]: ≥ 90%; pest or weed control at 2 µg/mL [1, 8]: 100%; pest or weed control at 2 µg/mL [2, 9]: ≥ 90%; pest or weed control at 0.5 µg/mL [2, 10]: 98%; pest or weed control at 1.25 µg/mL [3, 11]: 100%; pest or weed control at 1.25 µg/mL [3, 12]: ≥ 90% |
| CCCCC(=O)OCO/C(=C(/C#N)c1ccc(C(C)(C)C)cc1)c1cc(C)nn1CC [Compound 231] | ≥ 90 | ≥ 95 | ≥ 90 |  |
| CCn1nc(C)cc1/C(OCOC(=O)CC(C)C)=C(\C#N)c1ccc(C(C)(C)C)cc1 [Compound 232] | ≥ 90 | ≥ 95 | ≥ 90 |  |
| CCn1nc(C)cc1/C(OCOC(=O)COC)=C(\C#N)c1ccc(C(C)(C)C)cc1 [Compound 233] | ≥ 90 | ≥ 95 | ≥ 90 |  |
| CCn1nc(C)cc1/C(OCOC(=O)C1CC1)=C(\C#N)c1ccc(C(C)(C)C)cc1 [Compound 234] | ≥ 90 | ≥ 95 | ≥ 90 | pest or weed control at 2 µg/mL [1, 7]: ≥ 90%; pest or weed control at 2 µg/mL [1, 8]: 100%; pest or weed control at 2 µg/mL [2, 9]: ≥ 90%; pest or weed control at 0.5 µg/mL [2, 10]: 96%; pest or weed control at 1.25 µg/mL [3, 11]: 100%; pest or weed control at 1.25 µg/mL [3, 12]: ≥ 90% |
| CCn1nc(C)cc1/C(OCOC(=O)CSC)=C(\C#N)c1ccc(C(C)(C)C)cc1 [Compound 235] | ≥ 90 | ≥ 95 | ≥ 90 |  |
| CCn1nc(C)cc1/C(OCOC(=O)C1CCCCC1)=C(\C#N)c1ccc(C(C)(C)C)cc1 [Compound 236] | ≥ 90 | ≥ 95 | ≥ 90 |  |
| CCn1nc(C)cc1/C(OCOC(=O)CF)=C(\C#N)c1ccc(C(C)(C)C)cc1 [Compound 237] |  |  |  | pest or weed control at 5 µg/mL ([1]; read-out: ovicidal activity): ≥ 90%; pest or weed control at 2.5 µg/mL ([2]; 48 h, read-out: nymph-killing activity): ≥ 95%; pest or weed control at 2.5 µg/mL [3, 12]: ≥ 90% |
| CCn1nc(C)cc1/C(OCOC(=O)C(F)(F)F)=C(\C#N)c1ccc(C(C)(C)C)cc1 [Compound 238] | ≥ 90 | ≥ 95 | ≥ 90 |  |
| CCn1nc(C)cc1/C(OCOC(=O)c1ccccc1)=C(\C#N)c1ccc(C(C)(C)C)cc1 [Compound 239] | ≥ 90 | ≥ 95 | ≥ 90 |  |
| CCn1nc(C)cc1/C(OCOC(=O)Cc1ccccc1)=C(\C#N)c1ccc(C(C)(C)C)cc1 [Compound 240] | ≥ 90 |  | ≥ 90 | pest or weed control at 2.5 µg/mL ([2]; concentration 2.5 mg/L, 48 h, read-out: nymph-killing activity): ≥ 95% |
| CCn1nc(C)cc1/C(OCOC(=O)C(C)(C)CC)=C(\C#N)c1ccc(C(C)(C)C)cc1 [Compound 241] | ≥ 90 | ≥ 95 | ≥ 90 | pest or weed control at 2 µg/mL [1, 8]: 100%; pest or weed control at 0.5 µg/mL [2, 10]: 100%; pest or weed control at 1.25 µg/mL [3, 11]: 100% |
| C=CC(=O)OCO/C(=C(/C#N)c1ccc(C(C)(C)C)cc1)c1cc(C)nn1CC [Compound 242] | ≥ 90 | ≥ 95 | ≥ 90 |  |
| CCn1nc(C)cc1/C(OC(C)OC(C)=O)=C(\C#N)c1ccc(C(C)(C)C)cc1 (stereo not drawn) [Compound 251] | ≥ 90 | ≥ 95 | ≥ 90 | pest or weed control at 2 µg/mL [1, 7]: ≥ 90%; pest or weed control at 2 µg/mL [1, 8]: 100%; pest or weed control at 2 µg/mL [2, 9]: ≥ 90%; pest or weed control at 0.5 µg/mL [2, 10]: 100%; pest or weed control at 1.25 µg/mL [3, 11]: 100%; pest or weed control at 1.25 µg/mL [3, 12]: ≥ 90% |

Reference: patent publication US11104648B2, “Pyrazole derivative” (Zhejiang Research Institute of Chemical Industry Co., Ltd., priority 2018, dated 2021)
